Non-standard residues stand in square brackets, D forms with d. Residues, ends and D or L forms follow the SMILES beside them.
Assays:
[1] = method code SF-HPLC, from Pan, J.; Wu, Z.; Hui, A.; Tao, M. (2011). Determination of partition coefficients of ginkgolide beta and its prodrug. Shizhen Guo Yi Guo Yao, 22(10)2397-2400.
[2] = method code SF-RC, from DOI: 10.1021/jm050166g.s001, PMID: 16162001; conditions: pH 7.4
[3] = method code SF-RC, from DOI: 10.1021/es60172a005, PMID: 22280000
[4] = not given; remark: listed apart in the source
[5] = not given; remark: listed apart in the source
[6] = method code SF-AS, from DOI: 10.1021/jm300468t, PMID: 22574992; conditions: pH 9.0
[7] = method code SF-AS, from PMID: 7271269; conditions: pH 6.0
[8] = method code SF-RC, from DOI: 10.1016/j.nucmedbio.2006.10.003, PMID: 17210465; conditions: pH 7.4
[9] = method code G-RC, from DOI: 10.1016/0300-483x(85)90031-9, PMID: 4049435
[10] = method code SF, from DOI: 10.1002/syn.20842; conditions: pH 7.4
[11] = method code SF-AS, from DOI: 10.1021/jm00371a026, PMID: 6425501; conditions: pH 7.4
[12] = method code SF-HPLC, from DOI: 10.1002/jps.23140, PMID: 22499243; conditions: pH 7.4
[13] = not given; remark: listed apart in the source
[14] = not given; remark: listed apart in the source
[15] = method code SF-RC, from DOI: 10.1016/j.nucmedbio.2009.01.009, PMID: 19423014; conditions: pH 7.4
[16] = not given; remark: listed apart in the source
[17] = method code SF-AS, from DOI: 10.1111/j.2042-7158.1983.tb02957.x, PMID: 6135774
[18] = method code SF-HPLC, from DOI: 10.1016/0168-3659(92)90067-2
[19] = not given; remark: listed apart in the source
[20] = method code SF-AS, from DOI: 10.1002/jps.2600720808, PMID: 6620139
[21] = not given; remark: listed apart in the source
[22] = method code SF, from PMID: 3183
[23] = method code SF-RC, from PMID: 447850; conditions: pH 7.4
[24] = method code SF-AS, from PMID: 7460030; conditions: pH 7.3
[25] = not given; remark: listed apart in the source
[26] = not given; remark: listed apart in the source
[27] = method code SF-HPLC, from Suo, X.; Li, M.; Wang, Y.; Zhu, S. (2010). Study on oil-water partition coefficient of hydroxycamptothecin and its absorption efficiency in rat small intestine. Chinese Traditional Patent Medicine, …; conditions: pH 7.4
[28] = not given; remark: listed apart in the source
[29] = method code SF-HPLC, from DOI: 10.1016/j.jpba.2007.09.019, PMID: 17988818
[30] = from Zeng, J.; Huang, T.; Li, F.; Zhu, Z.; Chen, L.; Feng, L. (2014). Determination of apparent oil-water partition coefficient and equilibrium solubility of levonorgestrel and gestodene by RP-HPLC. …
[31] = not given; remark: listed apart in the source
[32] = method code SF-AS, from DOI: 10.1021/jm9807104, PMID: 10514282; conditions: pH 7.0
[33] = not given; remark: listed apart in the source
[34] = method code SF-RC, from DOI: 10.1002/jlcr.3404, PMID: 27126914; conditions: pH 7.4
[35] = method code SF-HPLC, from DOI: 10.1002/jps.23034, PMID: 22213574; conditions: pH 7.4
[36] = method code SF-HPLC, from DOI: 10.1016/j.ejps.2012.04.024, PMID: 22609526
[37] = method code SF-AS, from DOI: 10.1016/0304-4165(87)90236-4, PMID: 2889474
[38] = not given; remark: listed apart in the source
[39] = not given; remark: listed apart in the source
[40] = method code SF, from DOI: 10.1021/jm300192x, PMID: 22519985; conditions: pH 7.4
[41] = not given; remark: listed apart in the source

## CC1C(=O)OC2C(O)C34C5CC(C(C)(C)C)C36C(OC(=O)C6O)OC4(C(=O)O5)C12O (configuration not stated)
[1]
  logP: 0.59

## CN(C)c1ccc(C=Cc2ccc(OCC(CO)CF)cc2)cc1 (configuration not stated)
[2]
  logD: 3.14

## O=C1C(=O)c2ccccc2C(O)=C1C1CCC(c2ccc(Cl)cc2)CC1 (configuration not stated)
other
  logP: 5.07

## Cc1ccc2cc3c(ccc4ccccc43)c3c2c1CC3
[3]
  logP: 6.42

## CCCCC[C@H](O)/C=C/[C@H]1[C@H](O)CC(=O)[C@@H]1C/C=C\CCCC(=O)O
[4]
  logP: 2.9

## N#CCNC(=O)[C@@H]1CCCC[C@H]1C(=O)N1CCN(c2ccccc2)CC1
[5]
  logP: 1.8

## Cc1c2c3cc(NC(=O)CNC(=O)CN)ccc3nc-2n(C)c2ccccc12
[6]
  logD: 0.85

## COCOC(=O)C1N2C(=O)C(N3C(=O)C(c4ccc(O)cc4)NC3(C)C)C2SC1(C)C (configuration not stated)
[7]
  logD: 0.3

## CN(C)c1ccc(/C=C/c2ccc(OCCOCCOCCF)nc2)cc1
[8]
  logD: 3.22

## O=[N+]([O-])c1c2ccccc2c2ccc3cccc4ccc1c2c43
[9]
  logP: 5.44

## CCCS(=O)(=O)N1CCC(CNC(=O)c2ccc(Cl)cc2Cl)(c2cccc(F)n2)CC1
[10]
  logD: 2.9

## CO[C@@]12[C@H](COC(N)=O)C3=C(C(=O)C(C)=C(Nc4cccnc4)C3=O)N1C[C@@H]1N[C@@H]12
[11]
  logD: 0.52

## CCCCCCCCCCCCOP1(=O)OCC(Cn2ccc(N)nc2=O)O1 (configuration not stated)
[12]
  logD: 3.89

## FCCC1OC2(CCN(Cc3ccccc3)CC2)c2ccccc21 (configuration not stated)
[13]
  logP: 3.58

## CNC(=O)c1ccc(Oc2ccc3c(c2)CCN(C2CCC2)CC3)nc1
[14]
  logP: 2.24

## CCCCOc1c(OC)ccc2cc(C(=O)NC3CCCCC3)c(=O)[nH]c12
[15]
  logD: 3.9

## O=C(NN(C(=O)c1ccccc1)c1ccccc1)c1ccccc1
[16]
  logP: 3.32

## COc1cc(N)c(Cl)cc1C(=O)NC1CCN(Cc2ccccc2)CC1
[17]
  logP: 2.99

## CC(=O)N[C@H](Cc1ccc(O)cc1)C(=O)N[C@H](Cc1ccc(O)cc1)C(N)=O (Ac-[dY]-[dY]-NH2)
[18]
  logP: -0.16

## CN(C)Cc1ccc(CSCCNc2[nH]cc(Cc3ccccc3)c2[N+](=O)[O-])o1
[19]
  logP: 3.65

## C[C@]12CCC(=O)C=C1CC[C@@H]1[C@@H]2CC[C@@]2(C)[C@H]1CC[C@]2(C)O
[20]
  logP: 3.36

## COc1cc(NC(C)=O)c(I)cc1C(=O)NCCCCN1CC2CCC1C2 (configuration not stated)
[21]
  logP: 0.8

## CCCCC(CC)CN1CN(CC(CC)CCCC)CC(C)(N)C1 (configuration not stated)
[22]
  logP: 2.05

## C[C@]12CCC(=O)C=C1CC[C@@H]1[C@@H]2[C@@H](O)C[C@]2(C=O)[C@@H](C(=O)CO)CC[C@@H]12
[23]
  logD: 1.08

## CCCCCOc1cccc(NC(=O)OC2CCCCC2)c1-n1ccnc1
[24]
  logD: 3.38

## COCCOC(=O)C1=C(C)NC(C)=C(C(=O)OC(C)C)C1c1cccc([N+](=O)[O-])c1 (configuration not stated)
[25]
  logP: 2.82

## CCOc1ccccc1OCCN[C@H](C)Cc1ccc(OC)c(S(N)(=O)=O)c1
[26]
  logP: 2.2

## CC[C@@]1(O)C(=O)OCc2c1cc1n(c2=O)Cc2cc3cc(O)ccc3nc2-1
[27]
  logD: 1.33

## CN(C)c1ccc(-c2ccc3cc(OCC(O)CF)ccc3n2)cc1 (configuration not stated)
[28]
  logP: 3.03

## COc1cc(C=Cc2cc(/C=C/c3ccc(O)c(OC)c3)n[nH]2)ccc1O
[29]
  logP: 1.78

## C#C[C@]1(O)C=C[C@H]2[C@@H]3CCC4=CC(=O)CC[C@@H]4[C@H]3CC[C@@]21CC
[30]
  logP: 3.45

## CN(C)CCO[C@]1(c2ccccc2)C[C@H]2CC[C@]1(C)C2(C)C
[31]
  logP: 5.9

## COC(=O)C(C)NP(=O)(Oc1cccc(C(F)(F)F)c1)OC1C=CC(n2cc(C)c(=O)[nH]c2=O)O1 (configuration not stated)
[32]
  logD: 1.57

## CSc1nc(Nc2ccccc2)c2cnn(CCCl)c2n1
[33]
  logP: 5.49

## COc1ccc2c(C3=C(c4cn(C)c5ccc(I)cc45)C(=O)NC3=O)coc2c1
[34]
  logD: 3.23

## O=S(=O)(c1ccc(C(F)(F)F)cc1)N1c2cc(F)c(F)cc2-c2[nH]ncc2C1C1CC1 (configuration not stated)
[35]
  logD: 3.91

## O=c1c(O[C@@H]2OC[C@@H](O)[C@H](O)[C@H]2O)c(-c2ccc(O)c(O)c2)oc2cc(O)cc(O)c12
[36]
  logP: 1.75

## C=C1C(=O)OC2CC(C)C3C=CC(=O)C3(C)C(OC(=O)C=C(C)C)C12 (configuration not stated)
[37]
  logP: 1.47

## O[C@H](CNC[C@H](O)[C@H]1COc2ccccc2O1)[C@@H]1COc2ccccc2O1
[38]
  logP: 2.45

## Oc1ccc2ccccc2c1/N=N/c1ccc(/N=N/c2ccccc2)cc1
[39]
  logP: 2.11

## OCC1OC(c2ccc(N3CCc4ccccc43)cc2)C(O)C(O)C1O (configuration not stated)
[40]
  logD: 2.3

## Cc1cc2c(-c3ccccn3)c[nH]c2c(C(=O)Nc2ncccc2C)n1
[41]
  logP: 4.7

Reference: the SangsterLogP compilation
